# Test system: PI3Kα-KO MEFs
# Test: Mass spectrometry-based phosphoproteomics, PI3Kα-KO MEFs
# Assay type: cell-based, mouse
# Experimental: PI3Kα-WT and PI3Kα-KO MEFs, grown in 15 cm dishes, were serum-starved overnight in DMEM with 1% penicillin-streptomycin and stimulated by the addition of 0.05% DMSO, 5 μM 1938 in final 0.05% DMSO or 100 nM insulin (Sigma #I5016) for 15 min or 4 h. Cells were lysed in 500 μl urea lysis buffer [50 mM triethylammonium bicarbonate, 8 M urea, cOmplete™ EDTA-free protease inhibitor cocktail (1:50 dilution) (Roche #11873580001), 1 PhosSTOP tablet (Roche #4906845001) per 10 ml of lysis buffer, 1 mM sodium orthovanadate] and lysates sonicated until clear for ~10 min with cooling breaks on ice. Protein concentration was measured using a BCA protein assay (Pierce #23227). 300 μg of protein was reduced with 5 mM Tris(2-carboxyethyl)phosphine hydrochloride (Sigma #C4706) at 37°C for 20 min and alkylated using 10 mM 2-chloroacetamide (Sigma #22790) for 20 min at room temperature in the dark. Proteins were digested with LysC (#129-02541; FUJIFILM Wako Chemicals, Osaka, Japan) for 3.5 h at 30°C. Samples were then diluted with 50 mM triethylammonium bicarbonate (Sigma #T7408) to reduce the urea concentration to 1.5 M, followed by an overnight peptide digestion with trypsin (Promega #V5113) at 37°C. Digest reactions were quenched by the addition of 10% trifluoroacetic acid (EMD Millipore #302031-M) to a final pH of 2.0. Sample desalting was performed using 35-350 μg C18 columns (HMM S18V; The Nest Group, Inc., Southborough, MA, USA) according to the manufacturer’ specifications. TiO2 (Hichrome Titansphere TiO2, 10 μm capacity, 100 mg, GL Sciences #5020-75010) was used for phosphoenrichment. Following peptide loading onto TiO2, the beads were sequentially washed with 1 M glycolic acid (Sigma #124737)/80% acetonitrile/5% trifluoroacetic acid, followed by 80% acetonitrile/0.2% trifluoroacetic acid and 20% acetonitrile before elution with 5% ammonium hydroxide. Enriched samples were desalted using 7-70 μg C18 columns (HUM S18V; The Nest Group, Inc., Southborough, MA, USA) according to the manufacturer’s specifications. Dried phosphopeptide samples were stored at -80°C and resuspended in 10% formic acid immediately prior to analysis. nLC-MS/MS was performed on a Q-Exactive Orbitrap Plus interfaced to a NANOSPRAY FLEX ion source and coupled to an Easy-nLC 1000 (Thermo Scientific). Fifty percent of each sample was analysed as 10 μl injections. Peptides were separated on a 27 cm fused silica emitter, 75 μm diameter, packed in-house with Reprosil-Pur 200 C18-AQ, 2.4 μm resin (Dr. Maisch, Ammerbuch-Entringen, Germany) using a linear gradient from 5% to 30% acetonitrile/0.1% formic acid over 180 min, at a flow rate of 250 nl/min. Peptides were ionised by electrospray ionisation using 1.9 kV applied immediately prior to the analytical column via a microtee built into the nanospray source with the ion transfer tube heated to 320°C and the S-lens set to 60%. Precursor ions were measured in a data-dependent mode in the orbitrap analyser at a resolution of 70,000 and a target value of 3e6 ions. The ten most intense ions from each MS1 scan were isolated, fragmented in the HCD cell, and measured in the Orbitrap at a resolution of 17,500.
# Raw data were analysed with MaxQuant[72] (version 1.5.5.1) where they were searched against the mouse UniProt database (http://www.uniprot.org/, downloaded 04/12/2018) using default settings. Carbamidomethylation of cysteines was set as fixed modification, and oxidation of methionines, acetylation at protein N-termini, phosphorylation (on S, T or Y) were set as variable modifications. Enzyme specificity was set to trypsin with maximally 2 missed cleavages allowed. To ensure high confidence identifications, peptide-spectral matches, peptides, and proteins were filtered at a less than 1% false discovery rate (FDR). Label-free quantification in MaxQuant was used with a LFQ minimum ratio count of 2, Fast LFQ selected and the ‘skip normalisation’ option selected. […]
smiles,measurement,setting,value
CCN1CCN(c2ccc(Nc3cc(Nc4cccc5c4N(C(C)=O)CC5)ccn3)cc2)CC1 [Compound 1938],signalling impact (phosphoproteomics),"PI3Kα-KO MEFs, 1938 5 μM",little signalling impact
same,"log2FC, PI3Ka KO 15’ 1938 vs PI3Ka KO DMSO",phosphosite Cask_S544,-0.1046
same,"log2FC, PI3Ka KO 4 h 1938 vs PI3Ka KO DMSO",phosphosite Cask_S544,NegInf
same,"log2FC, PI3Ka KO 15’ 1938 vs PI3Ka KO DMSO",phosphosite Cask_S545,0.1395
same,"log2FC, PI3Ka KO 4 h 1938 vs PI3Ka KO DMSO",phosphosite Cask_S545,0.1333
same,"log2FC, PI3Ka KO 15’ 1938 vs PI3Ka KO DMSO",phosphosite Gm42715_S1683,Inf
same,"log2FC, PI3Ka KO 4 h 1938 vs PI3Ka KO DMSO",phosphosite Gm42715_S1683,Inf
